For four compounds, IC50 results are on record in patent US5925331A, “Technetium-99m labeled peptides for thrombus imaging” (Diatide, Inc., priority 1995, dated 1999).

The experiment deals with human platelets in platelet-rich plasma. In words: Platelet aggregation inhibition assay (ADP-induced, platelet-rich plasma). The experiment is classed as cell-based. The conditions noted are these: fresh human platelet-rich plasma, 300,000 platelets per microliter; ADP 10 to 15 micromolar; read-out: IC50: concentration of reagent that inhibits by 50% the aggregation of human platelets in platelet-rich plasma induced by ADP. Here is the method:
Platelet aggregation studies were performed essentially as described by Zucker (1989, Methods in Enzymol. 169: 117-133). Briefly, platelet aggregation was assayed with or without putative platelet aggregation inhibitory compounds using fresh human platelet-rich plasma, comprising 300,000 platelets per microliter. Platelet aggregation was induced by the addition of a solution of adenosine diphosphate to a final concentration of 10 to 15 micromolar, and the extent of platelet aggregation monitored using a Bio/Data aggregometer (Bio/Data Corp., Horsham, Pa.). The concentrations of platelet aggregation inhibitory compounds used were varied from 0.1 to 500 μg/mL. The concentration of inhibitor that reduced the extent of platelet aggregation by 50% (defined as the IC50) was determined from plots of inhibitor concentration versus extent of platelet aggregation. An inhibition curve for peptide RGDS was determined for each batch of platelets tested as a positive control.
In the case of `CC(=O)NCSC[C@H](NC(=O)CNC(=O)CNC(=O)[C@@H]1CSCC(=O)N[C@H](Cc2ccc(O)cc2)C(=O)N[C@@H](CSCCCN)C(=O)NCC(=O)N[C@@H](CC(=O)O)C(=O)N1)C(=O)NCC(=O)N[C@@H](CSCNC(C)=O)C(=O)NCC(=O)NCC(=O)N[C@H](Cc1ccccc1)C(=O)N1CCC[C@H]1C(=O)N[C@@H](CCCNC(=N)N)C(=O)N1CCC[C@H]1C(=O)NCC(N)=O` [Peptide P245, CH2 CO--YD.Apc.GDCGGCAcm GCAcm GGFD PRPGamide], the IC50 amounted to 0.5 µM.
For “(CH2 CO--YD ApcGDCKGCAcm GCAcm GGC-amide)2 --BSME [Peptide P381]” the value was 0.035 µM; for GRDGVRGDFCAcm GCAcm amide [Peptide P98], 15 µM; for “GRGDVRGDFKCAcm GCAcm amide [Peptide P97]”, 8 µM.
